Source: the supplement of paper PMC10307832

Legend:
Assay in all cases: relative viability (nuclei count vs DMSO), 5 days (fraction); higher = more cells survive
Selumetinib + Navitoclax = compound: Cn1cnc2c(F)c(Nc3ccc(Br)cc3Cl)c(C(=O)NOCCO)cc21 [Selumetinib] + CC1(C)CCC(c2ccc(Cl)cc2)=C(CN2CCN(c3ccc(C(=O)NS(=O)(=O)c4ccc(N[C@H](CCN5CCOCC5)CSc5ccccc5)c(S(=O)(=O)C(F)(F)F)c4)cc3)CC2)C1 [Navitoclax] (partner 0.5 µM)
Summary of the method: (§1)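 Relative viability divides the nuclei count in treated wells by that in vehicle wells. Lung cancer cell lines were seeded in 1536-well plates, dosed by pin tool the next day, and fixed and stained after 5 days in one step with final 0.05% Triton X-100, 1% formaldehyde and 1 ug/ml Hoechst. Dosing was a single drug or a fixed anchor-drug dose plus five library-drug doses (not always all listed) in √10 steps, and values are medians of duplicate plates imaged at 4×.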

Venetoclax + OSI-027 = compound: CC1(C)CCC(CN2CCN(c3ccc(C(=O)NS(=O)(=O)c4ccc(NCC5CCOCC5)c([N+](=O)[O-])c4)c(Oc4cnc5[nH]ccc5c4)c3)CC2)=C(c2ccc(Cl)cc2)C1 [Venetoclax] + COc1cccc2cc(-c3nc([C@H]4CC[C@H](C(=O)O)CC4)n4ncnc(N)c34)[nH]c12 [OSI-027] (partner 0.5 µM)
Summary of the method: as §1

Selumetinib + OSI-027 = compound: Cn1cnc2c(F)c(Nc3ccc(Br)cc3Cl)c(C(=O)NOCCO)cc21 [Selumetinib] + COc1cccc2cc(-c3nc([C@H]4CC[C@H](C(=O)O)CC4)n4ncnc(N)c34)[nH]c12 [OSI-027] (partner 0.5 µM)
Summary of the method: as §1

Selumetinib + Pictilisib = compound: Cn1cnc2c(F)c(Nc3ccc(Br)cc3Cl)c(C(=O)NOCCO)cc21 [Selumetinib] + CS(=O)(=O)N1CCN(Cc2cc3nc(-c4cccc5[nH]ncc45)nc(N4CCOCC4)c3s2)CC1 [Pictilisib] (partner 1 µM)
Summary of the method: as §1

In the case of UMC-11, the relative viability (Selumetinib + Navitoclax; first compound 0.02 µM) is reported as 0.273, the relative viability (Selumetinib + Navitoclax; first compound 0.06325 µM) is reported as 0.311 and the relative viability (Selumetinib + Navitoclax; first compound 0.2 µM) is reported as 0.3. The relative viability (Selumetinib + Navitoclax; first compound 0.6325 µM) was 0.314, the relative viability (Venetoclax + OSI-027; first compound 0.01 µM) was 0.439 and the relative viability (Venetoclax + OSI-027; first compound 0.03162 µM) was 0.46. The relative viability (Venetoclax + OSI-027; first compound 0.1 µM) was 0.465, the relative viability (Venetoclax + OSI-027; first compound 0.3162 µM) was 0.461 and the relative viability (Venetoclax + OSI-027; first compound 1 µM) was 0.428. The relative viability (Selumetinib + OSI-027; first compound 0.02 µM) was 0.459, the relative viability (Selumetinib + OSI-027; first compound 0.06325 µM) was 0.471 and the relative viability (Selumetinib + OSI-027; first compound 0.2 µM) was 0.379. It also gave a relative viability (Selumetinib + OSI-027; first compound 0.6325 µM) of 0.45, a relative viability (Selumetinib + Pictilisib; first compound 0.02 µM) of 0.827 and a relative viability (Selumetinib + Pictilisib; first compound 0.06325 µM) of 0.772. It also gave a relative viability (Selumetinib + Pictilisib; first compound 0.2 µM) of 0.869 and a relative viability (Selumetinib + Pictilisib; first compound 0.6325 µM) of 0.922.
